# Results reported in patent US8044094B2, “Agents for preventing and treating disorders connected to impaired neurotransmission” (DSM IP Assets B.V., priority 2004, dated 2011).
# Tests used:
# [1] = molecular target: human serotonin re-uptake transporter (hSERT) (Homo sapiens, UniProt P31645); experiment: Serotonin uptake inhibition in HEK-293 cells stably expressing hSERT; assay type: cell-based; conditions: transfected HEK-293 cells; Ki from IC50 by Cheng-Prusoff; 20 nM (3H) serotonin; read-out: Inhibition constant Ki for tritiated serotonin uptake
# Sequence of human serotonin re-uptake transporter (hSERT) (P31645 whole entry): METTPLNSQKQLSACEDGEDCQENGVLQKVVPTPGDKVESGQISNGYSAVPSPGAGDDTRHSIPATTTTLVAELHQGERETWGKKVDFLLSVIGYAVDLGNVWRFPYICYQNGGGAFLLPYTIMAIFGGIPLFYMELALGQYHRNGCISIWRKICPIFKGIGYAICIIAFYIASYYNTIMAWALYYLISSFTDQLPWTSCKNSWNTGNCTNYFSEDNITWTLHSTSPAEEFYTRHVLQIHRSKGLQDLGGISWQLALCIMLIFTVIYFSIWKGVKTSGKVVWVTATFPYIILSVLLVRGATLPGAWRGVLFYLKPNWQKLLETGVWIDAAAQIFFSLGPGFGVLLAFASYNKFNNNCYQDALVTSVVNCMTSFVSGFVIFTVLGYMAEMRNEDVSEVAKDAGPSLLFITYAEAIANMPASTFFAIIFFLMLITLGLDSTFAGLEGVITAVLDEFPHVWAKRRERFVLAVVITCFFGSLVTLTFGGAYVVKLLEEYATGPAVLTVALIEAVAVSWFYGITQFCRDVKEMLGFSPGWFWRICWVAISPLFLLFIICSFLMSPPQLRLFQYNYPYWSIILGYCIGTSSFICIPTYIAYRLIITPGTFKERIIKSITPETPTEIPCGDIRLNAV
# Description: HEK-293 cells stably expressing the human serotonin re-uptake transporter (hSERT) were obtained from R. Blakely, Vanderbilt University, USA. The cells were routinely grown in Dulbeco's Modified Eagles Medium, purchased from Bioconcept, Allschwil, Switzerland containing 10% fetal calf serum, penicillin, streptomycin, L-glutamine and the antibiotic G418 and passaged by trypsinisation. 1 day prior to the assay cells were seeded in the above mentioned medium. Immediately prior to the assay the medium was replaced by Krebs Ringers bicarbonate buffer, purchased from Sigma Chemicals Ltd., supplemented with 35 μM pargyline, 2.2 mM CaCl2, 1 mM ascorbic acid and 5 mM N-2-hydroxyethylpiperazine-N′-2-ethanesulfonic acid (buffer called “Hepes”). Serotonin uptake into the cells was determined by addition of radio-labeled (3H) serotonin (Amersham Biosciences GE Healthcare, Slough, UK) to a concentration of 20 nM, and incubation for 30 minutes at room temperature. Following removal of unincorporated label by gentle washing three times with the above buffer, incorporated serotonin was quantified by liquid scintillation counting.
# The effect of the coumarin ethers of formula I on the serotonin uptake and the citalopram binding was determined by its inclusion in the assay at a range of concentrations between 0.03 and 100 μM for 10 minutes prior to and during the addition of (3H) serotonin/citalopram. Serotonin uptake via the transporter and citalopram binding were both inhibited by the coumarin ethers of formula I in a dose dependent manner. The calculated inhibition constants Ki, derived from the measured IC50 using the Cheng—Prusoff equation (Y. C. Cheng, W. H. Prusoff, Biochem. Pharmacol. 1973, 22, p. 3099-3108), for inhibition of serotonin uptake and citalopram binding by coumarin ethers of the formula I are shown in Table 1.
# MAO-A = molecular target: T1, MAO-A (Homo sapiens, UniProt P21397); experiment: MAO-A inhibition, Amplex Red Monoamine Oxidase Assay Kit, colorimetric; assay type: biochemical; conditions: substrate p-tyramine
# T1 construct: purchased Sigma M7316
# T1 sequence (P21397 1-527): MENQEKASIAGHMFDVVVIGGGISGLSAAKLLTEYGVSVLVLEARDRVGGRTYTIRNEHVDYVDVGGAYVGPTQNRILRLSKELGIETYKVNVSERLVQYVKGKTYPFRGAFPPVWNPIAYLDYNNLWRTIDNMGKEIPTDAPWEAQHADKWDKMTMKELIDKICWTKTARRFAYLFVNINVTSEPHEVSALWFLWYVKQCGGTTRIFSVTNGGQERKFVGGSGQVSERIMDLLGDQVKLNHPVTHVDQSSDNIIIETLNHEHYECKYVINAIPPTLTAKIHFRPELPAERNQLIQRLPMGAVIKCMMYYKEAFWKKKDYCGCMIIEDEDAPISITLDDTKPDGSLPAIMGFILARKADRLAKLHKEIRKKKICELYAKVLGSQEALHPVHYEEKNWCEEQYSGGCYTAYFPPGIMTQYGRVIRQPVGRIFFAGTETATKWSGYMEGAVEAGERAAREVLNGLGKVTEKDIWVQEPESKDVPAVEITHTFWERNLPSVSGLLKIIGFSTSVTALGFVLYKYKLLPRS
# Description: From a stock solution of 0.0405 g of racemic obliquin (92.5%; equal to 37.5 mg of pure compound) in 750 μl of dimethylsulfoxide (DMSO), working solutions were prepared with a concentration of obliquin of 4. 10^−4M in reaction buffer (0.05 M sodium phosphate, pH 7.4, 0.2% DMSO). The final concentrations of obliquin in the test system were 10^−4 M, 10^−5 M, 10^−6 M, 10^−7 M.
# For determining the inhibition of monoaminoxidases' activity, the Amplex Red Monoamine Oxidase Assay Kit (Molecular Probes Nr._A-12214, Colorimetric version) was conducted according to manufacturers instructions.
# As substrates for MAO-A enzyme (Sigma Nr. M7316) p-tyramine and as substrate for MAO-B enzyme (Sigma Nr. M7441) benzylamine were used. The concentration of MAO-A enzyme was 8 Units/ml, and that of MAO-B 4 Units/ml in the working solution.
# MAO-A and MAO-B Assay, Colorimetric Version:
# For the assay, 50 μl of each working solution (see above) were used. As control solution, the obliquin containing working solution was replaced by 50 μl of the reaction buffer.
# 50 μl of diluted MAO-A with a final concentration of 2 Units/ml and 50 μl of diluted MAO-B with a final concentration of 1 Unit/ml, respectively, were added.
# 100 μl of the Amplex solution containing horseradish peroxidase (2 U/ml) and the substrate tyramine (for MAO-A) or the substrate benzylamine (for MAO-B) were added.
# To allow a subtraction of the background absorption a mixture of 100 μl of the Amplex solution and 100 μl of the reaction buffer was measured as a “blank”.
# The samples were incubated at room temperature in the dark for 1 hour, and then the extinction at 535 nm determined in a Softmax Microplate photometer (Molecular Device).
# mice = experiment: Porsolt's swim test (Behavioural Despair Test); assay type: in vivo; conditions: for Duration of immobility ± Standard Error of Mean: 30 minutes before the test, last 4 of 6 minutes
# Description: The “Behavioural Despair Test” or “Porsolt's Forced Swim Test” is a validated animal model for depression (see T. Nagatsu, NeuroToxicology 2004, 25, 11-20, especially p. 16, right column in the middle, in combination with Porsolt et al., Arch. Int. Pharmacodyn. 1977, 229, 327-336). It responds to enhancement of the transmission of several neurotransmitters including serotonine, dopamine and noradrenaline.
# The test, which detects antidepressant activity, was carried out as described by Porsolt et al. in Arch. Int. Pharmacodyn. 1977, 229, 327-336. Mice which are forced to swim in a situation from which they cannot escape rapidly become immobile. Antidepressants decrease the duration of immobility.
# Mice were individually placed in a cylinder (Height=24 cm, Diameter=13 cm) containing 10 cm water (22° C.) from which they could not escape. The mice were placed in the water for 6 minutes and the duration of immobility during the last 4 minutes was measured.
# 10 mice were studied per each of the four groups. The test was performed blind, i.e. the person carrying out the experiment was different from the person injecting the mice and didn't thus know to which of the four groups each mouse belonged.
# Obliquin was evaluated at 3 doses each: at 10, 30, and 80 mg/kg body weight, administered intraperitonally 30 minutes before the test, and compared with a control group. The thus administered obliquin was dissolved in a saline solution containing 3 weight-% DMSO and 3 weight-% Tween® 80 (so called “vehicle”). To the control group the vehicle consisting of the saline solution containing 3 weight-% DMSO and 3 weight-% Tween® 80 was administered intraperitonally.
# Data were analyzed by comparing the treated groups with the control group using the unpaired Student's T tests and Analysis of Variance (ANOVA).
smiles,measurement,setting,value
"C=C(C)[C@H]1COc2cc3oc(=O)ccc3cc2O1 (racemic) [Obliquin, obliquin]",Ki,[1],4.9 µM
same,inhibition at 0.1 µM,MAO-A; obliquin 1 x 10^−7 M,2%
same,inhibition at 1 µM,MAO-A; obliquin 10 x 10^−7 M,2%
same,inhibition at 10 µM,MAO-A; obliquin 100 x 10^−7 M,6.5%
same,inhibition at 100 µM,MAO-A; obliquin 1000 x 10^−7 M,24.1%
same,Duration of immobility ± Standard Error of Mean,"mice; mice, 10 mg/kg body weight i.p.",170.4 ± 11.1 s
same,Duration of immobility ± Standard Error of Mean,"mice; mice, 30 mg/kg body weight i.p.",150.9 ± 9.6 s
same,Duration of immobility ± Standard Error of Mean,"mice; mice, 80 mg/kg body weight i.p., p < 0.01 vs control",132.1 ± 10.5 s
same,Dose dependence of effect on immobility time,"mice; mice, 10, 30, 80 mg/kg i.p., ANOVA p<0.05",significant dose dependent effect
same,Reduction of immobility time,"mice; mice, highest dose group (80 mg/kg i.p.), vs control group",25%
